Experimental data as given in ChEMBL document CHEMBL4689842, “EUbOPEN Chemogenomics Library wave 1” (2021).

Legend:
Assay type in all cases: toxicity, cell-based
HEK-293T = assay: Incucyte cell viability with HEK293T; conditions: human, 10 µM, compound concentration 10 uM
Fibroblast = assay: Incucyte cell viability with human fibroblast; conditions: 10 µM, compound concentration 10 uM
U2OS = assay: Incucyte cell viability with U2OS; conditions: human, 10 µM, compound concentration 10 uM
[1] = 0 h, replicate number 1, timepoint 0 hours
[2] = 6 h, replicate number 1, timepoint 6 hours
[3] = 12 h, replicate number 1, timepoint 12 hours
[4] = 12 h, replicate number 2, timepoint 12 hours
[5] = 18 h, replicate number 1, timepoint 18 hours
[6] = 18 h, replicate number 2, timepoint 18 hours
[7] = 24 h, replicate number 1, timepoint 24 hours
[8] = 24 h, replicate number 2, timepoint 24 hours
[9] = 6 h, replicate number 2, timepoint 6 hours
[10] = 0 h, replicate number 2, timepoint 0 hours
Also: filed as whole numbers so only -1 and 0 and 1 occur.

CN1CC(=O)N=C1NC(=O)Nc1cccc(Cl)c1 [FENOBAM ANHYDROUS]
Growth Rate (HEK-293T; [1]): 0 | Growth Rate (HEK-293T; [2]): 1 | Growth Rate (HEK-293T; [3]): 1 | Growth Rate (HEK-293T; [4]): 0 | Growth Rate (HEK-293T; [5]): 1 | Growth Rate (HEK-293T; [6]): 0 | Growth Rate (HEK-293T; [7]): 1 | Growth Rate (HEK-293T; [8]): 0 | Growth Rate (Fibroblast; [1]): 0 | Growth Rate (Fibroblast; [3]): 1 | Growth Rate (Fibroblast; [5]): 1 | Growth Rate (Fibroblast; [7]): 1 | Growth Rate (U2OS; [1]): 0 | Growth Rate (U2OS; [9]): 1 | Growth Rate (U2OS; [3]): 0 | Growth Rate (U2OS; [4]): 1 | Growth Rate (U2OS; [5]): 1 | Growth Rate (U2OS; [7]): 1

CN(C)CCCn1cc(C2=C(c3c[nH]c4ccccc34)C(=O)NC2=O)c2ccccc21 [GF-109203]
Growth Rate (HEK-293T; [1]): 0 | Growth Rate (HEK-293T; [10]): 1 | Growth Rate (HEK-293T; [2]): 0 | Growth Rate (HEK-293T; [3]): 0 | Growth Rate (HEK-293T; [5]): 0 | Growth Rate (HEK-293T; [7]): 0 | Growth Rate (Fibroblast; [1]): 0 | Growth Rate (Fibroblast; [3]): 1 | Growth Rate (Fibroblast; [5]): 0 | Growth Rate (Fibroblast; [6]): 1 | Growth Rate (Fibroblast; [7]): 0 | Growth Rate (U2OS; [10]): 0 | Growth Rate (U2OS; [3]): 1 | Growth Rate (U2OS; [5]): 0 | Growth Rate (U2OS; [7]): 0

COc1ccc(COc2ccc(Cc3cnc(N)nc3N)cc2OC)cc1 [GW632580X]
Growth Rate (HEK-293T; [2]): 0 | Growth Rate (HEK-293T; [3]): 0 | Growth Rate (HEK-293T; [5]): 0 | Growth Rate (HEK-293T; [7]): 0 | Growth Rate (Fibroblast; [1]): 1 | Growth Rate (Fibroblast; [2]): 1 | Growth Rate (Fibroblast; [9]): 0 | Growth Rate (Fibroblast; [3]): 1 | Growth Rate (Fibroblast; [4]): 0 | Growth Rate (Fibroblast; [5]): 1 | Growth Rate (Fibroblast; [6]): 0 | Growth Rate (Fibroblast; [7]): 1 | Growth Rate (Fibroblast; [8]): 0 | Growth Rate (U2OS; [1]): 0 | Growth Rate (U2OS; [2]): 0 | Growth Rate (U2OS; [3]): 1 | Growth Rate (U2OS; [4]): 0 | Growth Rate (U2OS; [5]): 1 | Growth Rate (U2OS; [6]): 0 | Growth Rate (U2OS; [7]): 1 | Growth Rate (U2OS; [8]): 0

N#Cc1ccccc1OCC(O)CNCCNC(=O)Nc1ccccc1 (stereo not given) [ICI-89406]
Growth Rate (HEK-293T; [1]): 1 | Growth Rate (HEK-293T; [10]): 0 | Growth Rate (HEK-293T; [2]): 0 | Growth Rate (HEK-293T; [3]): 0 | Growth Rate (HEK-293T; [4]): 1 | Growth Rate (HEK-293T; [5]): 1 | Growth Rate (HEK-293T; [7]): 1 | Growth Rate (Fibroblast; [1]): 0 | Growth Rate (Fibroblast; [2]): 0 | Growth Rate (Fibroblast; [3]): 0 | Growth Rate (Fibroblast; [5]): 0 | Growth Rate (Fibroblast; [7]): 0 | Growth Rate (U2OS; [1]): 0 | Growth Rate (U2OS; [2]): 1 | Growth Rate (U2OS; [9]): 0 | Growth Rate (U2OS; [3]): 0 | Growth Rate (U2OS; [5]): 0 | Growth Rate (U2OS; [7]): 1 | Growth Rate (U2OS; [8]): 0

Cc1cccc(NC(=O)N[C@@H]2N=C(c3ccccc3)c3ccccc3N(C)C2=O)c1 [L-365260]
Growth Rate (HEK-293T; [1]): 0 | Growth Rate (HEK-293T; [2]): 0 | Growth Rate (HEK-293T; [3]): 0 | Growth Rate (HEK-293T; [5]): 0 | Growth Rate (HEK-293T; [7]): 0 | Growth Rate (Fibroblast; [1]): 0 | Growth Rate (Fibroblast; [3]): 1 | Growth Rate (Fibroblast; [5]): 0 | Growth Rate (Fibroblast; [7]): 1 | Growth Rate (U2OS; [1]): 0 | Growth Rate (U2OS; [10]): 1 | Growth Rate (U2OS; [2]): 0 | Growth Rate (U2OS; [3]): 1 | Growth Rate (U2OS; [4]): 0 | Growth Rate (U2OS; [5]): 0 | Growth Rate (U2OS; [7]): 0 | Growth Rate (U2OS; [8]): 1

CCC(=O)N1CC[C@H](Nc2ncnc3c2CN(c2cnc(OC)c(C(F)(F)F)c2)CC3)C1 [LENIOLISIB]
Growth Rate (HEK-293T; [9]): 0 | Growth Rate (HEK-293T; [4]): 1 | Growth Rate (HEK-293T; [8]): 1 | Growth Rate (Fibroblast; [10]): 1 | Growth Rate (Fibroblast; [2]): 0 | Growth Rate (Fibroblast; [3]): 0 | Growth Rate (Fibroblast; [5]): 0 | Growth Rate (Fibroblast; [7]): 0 | Growth Rate (U2OS; [1]): 0 | Growth Rate (U2OS; [10]): 1 | Growth Rate (U2OS; [2]): 0 | Growth Rate (U2OS; [3]): 0 | Growth Rate (U2OS; [4]): 1 | Growth Rate (U2OS; [5]): 0 | Growth Rate (U2OS; [7]): 0
